In patent US20230167073A1 (Teijin Pharma Limited, priority 2020, published 2023):

Molecular target: T1, Human TRPC6 (Homo sapiens, UniProt Q9Y210)
T1 construct: expressed in transfected cells
T1 sequence (Q9Y210 1-931): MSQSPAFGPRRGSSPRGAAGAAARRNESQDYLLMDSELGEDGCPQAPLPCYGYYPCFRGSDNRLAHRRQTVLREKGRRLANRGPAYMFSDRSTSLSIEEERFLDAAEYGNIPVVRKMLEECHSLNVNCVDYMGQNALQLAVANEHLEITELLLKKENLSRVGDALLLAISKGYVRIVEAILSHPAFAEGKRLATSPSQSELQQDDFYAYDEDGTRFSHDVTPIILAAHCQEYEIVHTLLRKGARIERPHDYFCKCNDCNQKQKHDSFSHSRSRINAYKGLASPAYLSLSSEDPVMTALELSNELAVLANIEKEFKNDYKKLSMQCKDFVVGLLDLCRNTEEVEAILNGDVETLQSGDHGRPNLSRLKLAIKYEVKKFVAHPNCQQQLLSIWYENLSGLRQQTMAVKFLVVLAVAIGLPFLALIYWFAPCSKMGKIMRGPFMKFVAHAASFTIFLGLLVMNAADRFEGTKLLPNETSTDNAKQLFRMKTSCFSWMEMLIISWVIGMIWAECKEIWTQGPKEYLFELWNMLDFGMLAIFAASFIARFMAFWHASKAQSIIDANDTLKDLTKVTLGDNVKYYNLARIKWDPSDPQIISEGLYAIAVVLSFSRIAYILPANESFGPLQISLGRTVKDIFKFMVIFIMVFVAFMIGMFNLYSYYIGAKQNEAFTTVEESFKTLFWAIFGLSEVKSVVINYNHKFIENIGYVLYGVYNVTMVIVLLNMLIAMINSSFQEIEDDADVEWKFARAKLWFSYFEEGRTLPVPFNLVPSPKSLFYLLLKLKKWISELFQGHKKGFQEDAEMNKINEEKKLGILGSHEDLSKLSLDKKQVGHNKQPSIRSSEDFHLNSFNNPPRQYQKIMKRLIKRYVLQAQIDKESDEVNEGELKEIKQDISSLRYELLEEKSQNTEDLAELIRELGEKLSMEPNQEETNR
Test: Evaluation of TRPC6 channel inhibitory activity (1), FLIPR Calcium 5 Assay Kit, OAG stimulation (Compound Nos. 1-1293)
Format: cell-based
Settings: Human TRPC6 stably-expressing cells, OAG 30 μM, FLIPR Calcium 5 Assay Kit; read-out: Inhibitory activity (pIC50 class) (converted)
Method: Evaluation of TRPC6 Channel Inhibitory Activity (1) (Compound Nos. 1-1293)
In order to investigate TRPC6 channel inhibitory activity of the compounds, evaluation was conducted using FLIPR® Calcium 5 Assay Kit (Molecular Devices) in accordance with the following procedure. Human TRPC6 stably-expressing cells were seeded in a 384-well black clear bottom plate at a density of 5×10^3/well and cultured in an incubator at 37° C. 5% CO2 for 24 hours. Thereafter, 25 μL of a Non Wash Dye Solution, prepared using Component A, 20 mM HEPES-HBSS and 250 mM probenecid, all of which are included in the kit, was added to each well, and the plate was incubated for 30 minutes. A volume of 12.5 μL of a compound solution was added into each well while the fluorescence was measured with FLIPR tetra. After 20 minutes, 12.5 μL of a 1-oleoyl-2-acetyl glycerol (OAG) solution was added at a final concentration of 30 μM. The difference between the minimum fluorescence intensity before the addition of the compound and the maximum fluorescence intensity after the addition of OAG was defined as a signal. An inhibition rate was calculated, assuming the average signal of wells without the compound as the inhibition rate of 0% and the average signal of wells without the compound and OAG as the inhibition rate of 100%. The calculated inhibition rate was analyzed by a four-parameter logistic regression to quantify the inhibition rate in the logarithm of the inverse of the effective concentration which gives a 50% inhibition rate (pIC50). The intensity was expressed by the following symbols (+, ++, +++).

IC50, < 10 nM:
Cc1nc(Oc2cc(C#N)ccc2-c2ccc(C(C)CN)cc2)cc(N2CCOCC2)n1 (stereo not drawn) [Compound 62, 4-[4-(1-aminopropan-2-yl)phenyl]-3-(2-methyl-6-morpholin-4-ylpyrimidin-4-yl)oxybenzonitrile]
N#Cc1ccc(-c2ccc(CCN)cc2)c(Oc2cnnc(N3CCCC3)c2)c1 [Compound 65, 4-[4-(2-aminoethyl)phenyl]-3-(6-pyrrolidin-1-ylpyridazin-4-yl)oxybenzonitrile]
N#Cc1ccc(-c2ccc(CCN)cc2)c(Oc2cnnc(N3CCCCC3)c2)c1 [Compound 66, 4-[4-(2-aminoethyl)phenyl]-3-(6-piperidin-1-ylpyridazin-4-yl)oxybenzonitrile]
N#Cc1ccc(-c2ccc(CCN)cc2)c(Oc2cnnc(-c3ccccc3)c2)c1 [Compound 69, 4-[4-(2-aminoethyl)phenyl]-3-(6-phenylpyridazin-4-yl)oxybenzonitrile]
N#Cc1ccc(-c2ccc(CCN)cc2)c(Oc2cnnc(-c3ccccc3O)c2)c1 [Compound 70, 4-[4-(2-aminoethyl)phenyl]-3-[6-(2-hydroxyphenyl)pyridazin-4-yl]oxybenzonitrile]

IC50, 10 to 1000 nM:
Cc1nc(Oc2cc(C#N)ccc2-c2ccc(CCNCCCO)cc2)cc(N2CCOCC2)n1 [Compound 58, 4-[4-[2-(3-Hydroxypropylamino)ethyl]phenyl]-3-(2-methyl-6-morpholin-4-ylpyrimidin-4-yl)oxybenzonitrile]
Cc1nc(Oc2cc(C#N)ccc2-c2ccc(C(CN)c3ccccc3)cc2)cc(N2CCOCC2)n1 (stereo not drawn) [Compound 59, 4-[4-(2-Amino-1-phenylethyl)phenyl]-3-(2-methyl-6-morpholin-4-ylpyrimidin-4-yl)oxybenzonitrile]
Cc1nc(Oc2cc(C#N)ccc2-c2ccc(C(CN)c3ccc(F)cc3)cc2)cc(N2CCOCC2)n1 (stereo not drawn) [Compound 60, 4-[4-[2-amino-1-(4-fluorophenyl)ethyl]phenyl]-3-(2-methyl-6-morpholin-4-ylpyrimidin-4-yl)oxybenzonitrile]
Cc1nc(Oc2cc(C#N)ccc2-c2ccc(C3(CN)CC3)cc2)cc(N2CCOCC2)n1 [Compound 67, 4-[4-[1-(aminomethyl)cyclopropyl]phenyl]-3-(2-methyl-6-morpholin-4-ylpyrimidin-4-yl)oxybenzonitrile]
Cc1nc(Oc2cc(C#N)ccc2-c2ccc(C(C)(O)CN)cc2)cc(N2CCOCC2)n1 (stereo not drawn) [Compound 68, 4-[4-(1-amino-2-hydroxypropan-2-yl)phenyl]-3-(2-methyl-6-morpholin-4-ylpyrimidin-4-yl)oxybenzonitrile]
Cc1nc(Oc2cc(C#N)ccc2-c2nc(C)c(C(O)CN)s2)cc(-c2ccccc2)n1 (stereo not drawn) [Compound 71, 4-[5-(2-amino-1-hydroxyethyl)-4-methyl-1,3-thiazol-2-yl]-3-(2-methyl-6-phenylpyrimidin-4-yl)oxybenzonitrile]
Cc1nc(Oc2cc(C#N)ccc2-c2ccc(C(CN)c3ccsc3)cc2)cc(N2CCOCC2)n1 (stereo not drawn) [Compound 72, 4-[4-(2-amino-1-thiophen-3-ylethyl)phenyl]-3-(2-methyl-6-morpholin-4-ylpyrimidin-4-yl)oxybenzonitrile]
Cc1nc(Oc2cc(C#N)ccc2-c2ccc(C(CN)c3ccoc3)cc2)cc(N2CCOCC2)n1 (stereo not drawn) [Compound 73, 4-[4-[2-amino-1-(furan-3-yl)ethyl]phenyl]-3-(2-methyl-6-morpholin-4-ylpyrimidin-4-yl)oxybenzonitrile]
Cc1nc(Oc2cc(C#N)ccc2-c2ccc(CCN)nc2)cc(N2CCOCC2)n1 [Compound 74, 4-[6-(2-aminoethyl)pyridin-3-yl]-3-(2-methyl-6-morpholin-4-ylpyrimidin-4-yl)oxybenzonitrile]
Cc1nc(Oc2cc(C#N)ccc2-c2ccc(CCN)nc2)cc(-c2ccccc2)n1 [Compound 75, 4-[6-(2-aminoethyl)pyridin-3-yl]-3-(2-methyl-6-phenylpyrimidin-4-yl)oxybenzonitrile]
N#Cc1ccc(-c2ccc(CCN)nc2)c(Oc2cnnc(N3CCCCC3)c2)c1 [Compound 78, 4-[6-(2-aminoethyl)pyridin-3-yl]-3-(6-piperidin-1-ylpyridazin-4-yl)oxybenzonitrile]

IC50, > 1000 nM:
CCOC(=O)CCNCCc1ccc(-c2ccc(C#N)cc2Oc2cc(N3CCOCC3)nc(C)n2)cc1 [Compound 54, ethyl 3-[2-[4-[4-cyano-2-(2-methyl-6-morpholin-4-ylpyrimidin-4-yl)oxyphenyl]phenyl]ethylamino] propanoate]
Cc1nc(Oc2cc(C#N)ccc2-c2ccc(C3CN(CCC(=O)O)C3)cc2)cc(N2CCOCC2)n1 [Compound 55, 3-[3-[4-[4-cyano-2-(2-methyl-6-morpholin-4-ylpyrimidin-4-yl)oxyphenyl]phenyl]azetidin-1-yl]propanoic acid]
Cc1nc(Oc2cc(C#N)ccc2-c2ccc(CCNCCC(=O)O)cc2)cc(N2CCOCC2)n1 [Compound 56, 3-[2-[4-[4-cyano-2-(2-methyl-6-morpholin-4-ylpyrimidin-4-yl)oxyphenyl]phenyl]ethylamino] propanoic acid]
COCCCNCCc1ccc(-c2ccc(C#N)cc2Oc2cc(N3CCOCC3)nc(C)n2)cc1 [Compound 57, 4-[4-[2-(3-methoxypropylamino)ethyl]phenyl]-3-(2-methyl-6-morpholin-4-ylpyrimidin-4-yl)oxybenzonitrile]
Cc1nc(Oc2cc(C#N)ccc2-c2ccc(C(CN)c3cccc(F)c3)cc2)cc(N2CCOCC2)n1 (stereo not drawn) [Compound 61, 4-[4-[2-amino-1-(3-fluorophenyl)ethyl]phenyl]-3-(2-methyl-6-morpholin-4-ylpyrimidin-4-yl)oxybenzonitrile]
Cc1nc(Oc2cc(C#N)ccc2-c2ccc(C(CN)OCC(=O)O)cc2)cc(N2CCOCC2)n1 (stereo not drawn) [Compound 63, 2-[2-amino-1-[4-[4-cyano-2-(2-methyl-6-morpholin-4-ylpyrimidin-4-yl)oxyphenyl]phenyl]ethoxy] acetic acid]
COCCOC(CN)c1ccc(-c2ccc(C#N)cc2Oc2cc(N3CCOCC3)nc(C)n2)cc1 (stereo not drawn) [Compound 64, 4-[4-[2-amino-1-(2-methoxyethoxy)ethyl]phenyl]-3-(2-methyl-6-morpholin-4-ylpyrimidin-4-yl)oxybenzonitrile]
N#Cc1ccc(-c2ccc(CCN)nc2)c(Oc2cnnc(Cl)c2)c1 [Compound 76, 4-[6-(2-aminoethyl)pyridin-3-yl]-3-(6-chloropyridazin-4-yl)oxybenzonitrile]
N#Cc1ccc(-c2ccc(CCN)nc2)c(Oc2cnnc(N3CCOCC3)c2)c1 [Compound 77, 4-[6-(2-aminoethyl)pyridin-3-yl]-3-(6-morpholin-4-ylpyridazin-4-yl)oxybenzonitrile]
N#Cc1ccc(-c2ccc(CCN)nc2)c(Oc2cc(Cl)cnn2)c1 [Compound 79, 4-[6-(2-aminoethyl)pyridin-3-yl]-3-(5-chloropyridazin-3-yl)oxybenzonitrile]
N#Cc1ccc(-c2ccc(CCN)nc2)c(Oc2cc(N3CCOCC3)cnn2)c1 [Compound 80, 4-[6-(2-aminoethyl)pyridin-3-yl]-3-(5-morpholin-4-ylpyridazin-3-yl)oxybenzonitrile]
